# Measured values: the supplement of paper PMC10307832
# What was measured:
# Assay in all cases: relative viability (nuclei count vs DMSO), 5 days (fraction); higher = more cells survive
# XMD8-85 + Tozasertib = compound: CN1CCN(CC1)C2=CC(=C(C=C2)NC3=NC=C4C(=N3)N(C5=CC=CC=C5C(=O)N4C)C)OC [XMD8-85] + Cc1cc(Nc2cc(N3CCN(C)CC3)nc(Sc3ccc(NC(=O)C4CC4)cc3)n2)n[nH]1 [Tozasertib] (partner 0.1 µM)
# Summary of the method: (§1)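 After 5 days of treatment, lung cancer cells in 1536-well plates were fixed and stained in a single step (final 0.05% Triton X-100, 1% formaldehyde, 1 ug/ml Hoechst) and their nuclei counted on 4× images. Treatment had been applied by pin tool the day after seeding as one drug alone or as a fixed anchor-drug dose with five library-drug doses (not always all listed) in √10 steps. Relative viability is the nuclei count of treated wells divided by that of vehicle wells, and values are medians of duplicate plates.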
# 4EGI-1 + Crizotinib = compound: O=C(O)C(Cc1ccccc1[N+](=O)[O-])=NNc1nc(-c2ccc(Cl)c(Cl)c2)cs1 (mixture of isomers) [4EGI-1] + C[C@@H](Oc1cc(-c2cnn(C3CCNCC3)c2)cnc1N)c1c(Cl)ccc(F)c1Cl [Crizotinib] (partner 1 µM)
# Summary of the method: as §1
# 4EGI-1 + Pemetrexed = compound: O=C(O)C(Cc1ccccc1[N+](=O)[O-])=NNc1nc(-c2ccc(Cl)c(Cl)c2)cs1 (mixture of isomers) [4EGI-1] + Nc1nc2[nH]cc(CCc3ccc(C(=O)N[C@@H](CCC(=O)O)C(=O)O)cc3)c2c(=O)[nH]1 [Pemetrexed] (partner 0.2 µM)
# Summary of the method: as §1
# 4EGI-1 + Navitoclax = compound: O=C(O)C(Cc1ccccc1[N+](=O)[O-])=NNc1nc(-c2ccc(Cl)c(Cl)c2)cs1 (mixture of isomers) [4EGI-1] + CC1(C)CCC(c2ccc(Cl)cc2)=C(CN2CCN(c3ccc(C(=O)NS(=O)(=O)c4ccc(N[C@H](CCN5CCOCC5)CSc5ccccc5)c(S(=O)(=O)C(F)(F)F)c4)cc3)CC2)C1 [Navitoclax] (partner 0.5 µM)
# Summary of the method: as §1
Cell Line,relative viability (XMD8-85 + Tozasertib; first compound 0.08 µM),relative viability (XMD8-85 + Tozasertib; first compound 0.253 µM),relative viability (XMD8-85 + Tozasertib; first compound 0.8 µM),relative viability (XMD8-85 + Tozasertib; first compound 2.53 µM),relative viability (XMD8-85 + Tozasertib; first compound 8 µM),relative viability (4EGI-1 + Crizotinib; first compound 0.5 µM),relative viability (4EGI-1 + Crizotinib; first compound 1.581 µM),relative viability (4EGI-1 + Crizotinib; first compound 5 µM),relative viability (4EGI-1 + Crizotinib; first compound 15.81 µM),relative viability (4EGI-1 + Crizotinib; first compound 50 µM),relative viability (4EGI-1 + Pemetrexed; first compound 0.5 µM),relative viability (4EGI-1 + Pemetrexed; first compound 1.581 µM),relative viability (4EGI-1 + Pemetrexed; first compound 5 µM),relative viability (4EGI-1 + Pemetrexed; first compound 15.81 µM),relative viability (4EGI-1 + Pemetrexed; first compound 50 µM),relative viability (4EGI-1 + Navitoclax; first compound 0.5 µM),relative viability (4EGI-1 + Navitoclax; first compound 1.581 µM),relative viability (4EGI-1 + Navitoclax; first compound 5 µM),relative viability (4EGI-1 + Navitoclax; first compound 15.81 µM),relative viability (4EGI-1 + Navitoclax; first compound 50 µM)
NCI-H1623,0.495,0.336,0.41,0.421,0.367,,,,,,,,,,,,,,,
NCI-H1563,,,,,,0.905,0.742,0.857,0.81,0.627,0.905,0.221,0.968,0.747,0.81,,,,,
NCI-H1666,0.579,0.641,0.637,0.601,0.464,1.12,1.03,1.19,0.632,0.253,0.898,0.889,0.891,0.711,0.641,1.14,1.05,1.31,0.833,0.248
LCLC-103H,0.451,0.449,0.581,0.45,0.383,1.05,0.926,0.937,0.857,1.05,0.443,0.409,0.474,0.435,0.477,,,,,
NCI-H1734,0.252,0.248,0.291,0.257,0.237,0.817,0.695,0.72,0.605,0.437,0.403,0.433,0.464,0.441,0.362,0.931,0.901,0.96,0.851,0.492
HOP-62,0.371,0.342,0.403,0.301,0.177,0.667,,0.938,0.89,0.574,0.342,0.389,0.362,0.311,0.318,1.11,,1.02,0.995,1.06
HCC-15,0.394,0.294,0.398,0.167,0.143,0.831,0.893,0.858,0.776,0.598,0.231,0.22,0.204,0.198,0.212,0.797,0.781,0.744,0.685,0.494
NCI-H2405,0.705,0.749,0.742,0.694,0.485,0.865,0.747,0.909,0.896,0.854,1.1,,1.3,1.05,0.285,1.28,0.628,1.09,1.15,0.58
NCI-H1793,0.277,0.322,0.297,0.289,0.255,,,,,,1.09,0.905,1.1,0.659,0.304,0.676,0.49,0.463,0.54,0.388
NCI-H1703,,,,,,0.754,0.597,0.681,0.521,0.269,,,,,,1.54,1.06,1.6,1.19,0.427
